Laboratory results as given in patent US10064834B2, “Carbidopa for the treatment of cancer” (Texas Tech University System, priority 2016, dated 2018).
Like-named read-outs stand apart in the source and are kept apart here.

Columns and labels:
[1] = system: AhR
Description: With a fixed concentration (10 μM), the inventors compared in HepG2 cells the induction of CYP1A1 by Carbidopa with that by other known AhR agonists, which included 3-ethylcholanthrene, benzo[a]pyrene, kynurenine, indole-3-carbinol, and indole acetic acid (Table 1).

[2] = system: AhR; conditions: BxPC-3, Carbidopa 10 μM, 6 h
[3] = system: AhR; conditions: Capan-2
[4] = system: BxPC-3 cells; assay: Colony formation (clonogenic) assay, BxPC-3; assay type: cell-based, human
Description: Clonogenic assay was performed as described [12]. The cells were seeded at a very low density (500 cells/well) and allowed to attach to the substratum. They were then treated with 10 μM Carbidopa and the colonies were allowed to grow for two weeks. The wells were washed every other day and fresh Carbidopa was added to the wells. At the end of the two-week period, the wells were washed and the colonies were visualized with KaryoMax Giemsa stain after fixation with methanol. The stain was eluted with 1% sodium dodecyl sulfate in 0.2 NaOH and the absorbance was measured at 630 nm.

[5] = system: Panc-1 cells; assay: Colony formation assay, Panc-1; assay type: cell-based; conditions: Homo sapiens; Panc-1, colony formation; read-out: Carbidopa concentration for 50% inhibition of growth
From the text: Colony formation assay was used to assess the effect.

[6] = system: Capan-2 cells; assay: Colony formation (clonogenic) assay, Capan-2; assay type: cell-based, human; conditions: Capan-2, 10 μM, two weeks
Description: (§1) Cell proliferation. Clonogenic assay was performed as described. The cells were seeded at a very low density (500 cells/well) and allowed to attach to the substratum. […] The wells were washed every other day and fresh Carbidopa was added to the wells. At the end of the two-week period, the wells were washed and the colonies were visualized with KaryoMax Giemsa stain after fixation with methanol. The stain was eluted with 1% sodium dodecyl sulfate in […] and the absorbance was measured at 630 nm. Inhibition of pancreatic cancer cell proliferation by Carbidopa and its potential relevance to the ability of the drug to inhibit IDO1. To test whether Carbidopa has anticancer effect, the inventors used pancreatic cancer as a model. For this, the inventors first conducted a colony formation assay with a human pancreatic normal cell line (hTERT-HPNE) and two human pancreatic cancer cell lines (BxPC-3 and Capan-2). […] To corroborate these in vitro data, the inventors performed subcutaneous xenografts in athymic nude mice using BxPC-3 cells.

[7] = system: hTERT-HPNE cells; assay: Colony formation (clonogenic) assay, normal pancreatic cell line; assay type: cell-based, human; conditions: 10 μM, two weeks
Description: as §1

[8] = system: MB-231 cells; assay: Colony formation assay, ER-negative breast cancer cells; assay type: cell-based, human
From the text: Breast cancer occurs in different subtypes: estrogen receptor-positive, estrogen receptor-negative, and BRCA1-mutant. The MMTV-PyMT-Tg mice represent estrogen receptor-positive breast cancer at least at the initial stages. To assess the potential of Carbidopa for the treatment of ER-negative breast cancer, the inventors used the human breast cancer cell line MB-231, a well-established model to study ER-negative breast cancer in model systems. The inventors monitored the effect of Carbidopa (dose response) on the growth of these cells using the colony formation assay.

[9] = system: HCC-1937 cells; assay: Colony formation assay, BRCA-1 mutant breast cancer cells; assay type: cell-based, human
From the text: Breast cancer occurs in different subtypes: estrogen receptor-positive, estrogen receptor-negative, and BRCA1-mutant. Mutations in BRCA-1 represent a small percentage of breast cancers in women but the disease is inheritable. […] To assess the potential of Carbidopa for the treatment of mutant BRCA-1-driven breast cancer, the inventors used the human breast cancer cell line HCC-1937, a well-established model to study mutant BRCA-1-driven breast cancer in model systems. The inventors monitored the effect of Carbidopa (dose response) on the growth of these cells using the colony formation assay.

[10] = system: BxPC-3 cells; assay: Subcutaneous BxPC-3 xenograft in athymic nude mice; assay type: in vivo, mouse
Description: FIGS. 2A and 2B show the in vivo effect of Carbidopa on the growth of BxPC-3 cells in mouse xenografts. The cells were injected subcutaneously in athymic nude mice. Carbidopa (1 mg/mouse) was injected intraperitoneally (i.p.) two days prior to the injection of the tumor cells (prevention mode). Drug injection was continued every day at the same dose. […] The growth of the tumor at the injected site was monitored every other day.
Xenograft studies. Female athymic nu/nu mice (8-week-old) were allowed to acclimatize to the environment for about a week before the start of the experiment. The animals were divided into control and treatment groups and injected with phosphate-buffered saline (control group) and Carbidopa @ 1 mg/mouse/day) (treatment group) intraperitoneally, at least 5 days prior to tumor cell injection. BxPC-3 (10×10^6 cells in 30% matrigel) was injected subcutaneously at the right flank of the mice. The treatment continued all through the experimental period. Tumor size in different groups were measured using a caliper and the tumor volume was calculated using the formula (width^2×length)/2.

[11] = system: spontaneous breast cancer driven by the polyoma middle T antigen oncogene; assay: Spontaneous breast cancer in MMTV-PyMT-Tg mice; assay type: in vivo; conditions: 1 mg/mouse i.p.
From the text: The MMTV-PyMT-Tg mice develop spontaneous breast tumors within 2 months of age. […] The drug treatment was started at 4 weeks of age and continued for two months. The mice were photographed at the end of this experimental period. The circles indicate the tumor size in two representative control mice and two representative Carbidopa-treated mice. […] The MMTV-PyMT-Tg mice develop spontaneous breast tumors within 2 months of age. […] The drug treatment was started at 4 weeks of age and continued for three months. The mice were photographed at the end of the study period. The circles indicate the tumor size in two representative control mice and two representative Carbidopa-treated mice.

[12] = system: Ki-67, p-mTOR, HIF1α and Cyp1a1 protein expression; assay: Immunohistochemical analysis in MMTV-PyMT-Tg mice; assay type: in vivo, mouse; conditions: Carbidopa-treated MMTV-PyMT-Tg mice
From the text: FIG. 8 is an immunohistochemical analysis of Ki-67, p-mTOR, HIF1α and Cyp1a1 protein expression in MMTV-PyMT-Tg mice treated with and without Carbidopa. […] Hypoxia is a key regulatory factor in tumor progression and in response to the hypoxic tumor environment, it regulates cell metabolism and redox homeostasis. HIF1α level in tumors is controlled by mTOR. […] To further validate the data, the inventors measured the expression of Cyp1a1 in MMTV-PyMT-Tg mice treated with and without Carbidopa. Cyp1a1 is an aryl hydrocarbon (AhR) receptor-responsive gene induced in response to AhR activation. AhR is activated by kynurenine, a product of IDO1 action on tryptophan. Thus, Cyp1a1 levels in tumor tissues serve as a read out for IDO1 activity. […] H&E, hematoxylin and eosin stain.

[13] = biological target: recombinant human indoleamine dioxygenase-1 (IDO1) (Homo sapiens, UniProt P14902); assay: IDO1 enzymatic activity assay (colorimetric); assay type: biochemical
Chain of recombinant human indoleamine dioxygenase-1 (IDO1) (P14902 whole entry): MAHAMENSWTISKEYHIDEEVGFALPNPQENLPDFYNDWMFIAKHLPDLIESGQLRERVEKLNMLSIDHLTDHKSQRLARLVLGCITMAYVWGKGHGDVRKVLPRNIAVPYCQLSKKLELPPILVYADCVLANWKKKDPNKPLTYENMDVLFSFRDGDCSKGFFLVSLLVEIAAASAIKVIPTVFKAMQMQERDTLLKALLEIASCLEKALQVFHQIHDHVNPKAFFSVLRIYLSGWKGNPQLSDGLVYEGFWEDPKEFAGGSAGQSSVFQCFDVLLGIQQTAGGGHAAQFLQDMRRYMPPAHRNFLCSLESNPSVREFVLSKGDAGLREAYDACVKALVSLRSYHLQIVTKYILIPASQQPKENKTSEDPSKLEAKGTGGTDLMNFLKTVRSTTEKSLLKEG
From the text: IDO-1 is an immunosuppressive enzyme that is induced in tumor cells and in immune cells present in tumor-draining lymph nodes. Induction of this enzyme suppresses the ability of the immune system to recognize tumor cells as foreign cells, which provides a means for the tumor cells to escape the immune attack. Pharmacological inhibition of this enzyme has potential in cancer treatment because such an approach will potentiate the ability of the immune system to kill the tumor cells. Many pharmaceutical companies have research programs in identifying selective inhibitors of IDO-1 for this purpose and some of the drugs are already in clinical trials in cancer patients. The present inventors assessed the ability of Carbidopa on the activity of this enzyme using the recombinant human enzyme.
To date, the only known pharmacological action of Carbidopa is the inhibition of aromatic amino acid decarboxylase, but the inventors are not aware of any direct association between this enzyme and cancer. Therefore, the inventors looked for new, hitherto unknown, pharmacological actions for this drug that could be related to the observed anticancer effect. […]

[14] = system: AhR; assay: Immunofluorescence localisation of AhR; assay type: cell-based, human; conditions: 25 μM for 6 h
Description: Immunofluorescence. Immunofluorescence studies were performed as described [12]. Briefly, cells grown on chamber slides were fixed, blocked and stained with mouse anti-AhR antibody (Abcam, Cambridge, Mass., USA) for 45 min after which they were washed and stained with secondary antibody (goat anti-mouse IgG) conjugated with Alexa Fluor 488 (Molecular Probes, Eugene, Oreg., USA); further washed and mounted with ProLong Diamond Antifade mountant with DAPI and the images were captured using a Nikon inverted microscope. Nuclei stained with DAPI are blue. Magnification, 100×.

[15] = human, oral, cited from earlier work
[16] = cited from earlier work
[17] = in vivo; cited from earlier work
[18] = in vivo; cited from earlier work; remark: listed apart in the source
[19] = biological target: indoleamine-2,3-dioxygenase 1 (IDO1) (Homo sapiens, UniProt P14902); conditions: reference [13]; cited from earlier work
Chain of indoleamine-2,3-dioxygenase 1 (IDO1) (P14902 whole entry): as above

With c1ccc2c(c1)cc1ccc3cccc4ccc2c1c34 [Benzo [a] pyrene] the “CYP1A1 expression, Fold [range]” value ([1]; HepG2 cells, 10 micromolar) was 35.3 Fold.
With Nc1ccccc1C(=O)CC(N)C(=O)O (stereo not shown) [Kynurenine] the “CYP1A1 expression, Fold [range]” value ([1]; human, 10 μM) was 3.97 Fold.
For Cc1ccccc1N=Nc1ccc(NC(=O)c2ccnn2C)c(C)c1 [CH223191], the “effect of AhR antagonist on Carbidopa-induced CYP1A1 expression” value (“effect of AhR antagonist” below) ([1]; HepG2, Carbidopa 10 μM, CH223191 10 μM, resveratrol 20 μM, 6 h) was “blocked”, the “effect of AhR antagonist” value [2] was “blocked” and the “effect of AhR antagonist” value [3] was “blocked”.
For OCc1c[nH]c2ccccc12 [Indole 3-carbinol], the “CYP1A1 expression, Fold [range]” value ([1]; HepG2 cells, 10 micromolar) was 7.62 Fold.
With C[C@@](Cc1ccc(O)c(O)c1)(NN)C(=O)O [Carbidopa, (2S)-3-(3,4-dihydroxyphenyl)-2-hydrazino-2-methylpropanoic acid] the “growth of BxPC-3 cells” value ([4]; 10 μM Carbidopa, colony formation) was “almost completely abolished”, the “number of colonies compared to untreated controls” value ([4]; BxPC-3, 10 μM, two weeks) was “significantly reduced” and the IC50 [5] was < 50 µM. The “number of colonies compared to untreated controls” value [6] was “significantly reduced”, the “number of colonies compared to untreated controls” value [7] was “not seen” and the IC50 ([8]; Homo sapiens, MB-231, colony formation, read-out: Carbidopa concentration for 50% inhibition of growth) was < 15 µM. For the same molecule, the “effect on the growth of the cells” value ([8]; MB-231, dose response) was “marked inhibitory effect”, the “effect on the growth of the cells” value ([9]; HCC-1937, dose response) was “marked inhibitory effect” and the IC50 ([9]; Homo sapiens, HCC1937, HCC-1937, colony formation, read-out: Carbidopa concentration for 50% inhibition of growth) was < 25 µM. The “growth of the tumor” value ([10]; 1 mg/mouse i.p. every day, prevention mode) was “reduced the growth of the tumor markedly”, the “tumor volume compared to untreated controls” value ([10]; daily dose of 1 mg/mouse, intraperitoneal) was “significantly reduced the tumor volume” and the “number and size of the tumors” value ([11]; treatment for three months) was “reduced the number and size of the tumors”. The “number and size of the tumors” value ([11]; treatment for two months) was “reduced the number and size of the tumors”, the “Cyp1a1 expression in tumor tissues” value [12] was “significant reduction in Cyp1a1 expression” and the HIF1α protein [12] was “marked decrease in HIF1α protein”. For the same molecule, the “Ki-67 staining (cell proliferation)” value [12] was “marked reduction in proliferation”, the p-mTOR staining [12] was “marked reduction in p-mTOR staining” and the “inhibition of IDO-1 enzyme activity” value ([13]; 10 μM) was “inhibits IDO-1 significantly”. The “inhibition of IDO1 enzyme activity” value ([13]; colorimetric assay of kynurenine, efficacy said to be markedly underestimated) was “does indeed inhibit IDO1”, the “localisation of AhR” value ([14]; BxPC-3 cells) was “nuclear translocation of the receptor” and the “localisation of AhR” value ([14]; Capan-2 cells) was “nuclear translocation of the receptor”. For the same molecule, the “localisation of AhR” value ([14]; HepG2 cells) was “led to the nuclear translocation of AhR”, the “concentrations at which Carbidopa activates AhR” value [1] was 3 to 10 µM and the “CYP1A1 expression, Fold [range]” value ([1]; human, 10 μM) was 2.63 Fold. For the same molecule, the “time post-treatment at which CYP1A1 induction is seen” value ([1]; human, 10 μM) was ≤ 3 h, the plasma concentration ([15]; 75 mg/day dose) was 2 µM and the plasma concentration ([15]; 450 mg/day dose) was 16 µM. For the same molecule, the “side effects in humans” value ([16]; <400 mg/day in patients weighing 60 kg) was “no unwanted side effects”, the safety in humans ([16]; dose as high as 450 mg/day) was “safe” and the “crossing of the blood-brain barrier” value [17] was “inability of the latter to cross the blood-brain barrier”. The oral bioavailability [18] was “orally bioavailable”.
In the case of N[C@@H](Cc1ccc(O)c(O)c1)C(=O)O [L-DOPA, L-3,4-dihydroxyphenylalanine], the “CYP1A1 mRNA expression” value ([1]; human, 6 h, 100 μM) is reported as “did not affect CYP1A1 expression”.
With Cc1ccc2cc3c(ccc4ccccc43)c3c2c1CC3 [3-Methylcholanthrene] the “CYP1A1 expression, Fold [range]” value ([1]; HepG2 cells, 10 micromolar) was 56.8 Fold.
For NNc1ccccc1 [phenylhydrazine], the IC50 [19] is listed as 8 ± 2 µM.
